Patent US11638702B2, “Glyceryl 3-hydroxybutyrates for traumatic brain injury” (NeuroEnerygy Ventures, Inc., priority 2017, dated 2023)

Key:
[1] = tested on: traumatic brain injury (TBI) patients; test: Oral glyceryl tris(3-hydroxybutyrate) with standard non-restricted diet in individual TBI patients (case examples); assay type: in vivo, human; settings: for Clinical status at follow-up: day 7 of regimen
Protocol: A 60 kg person presents with TBI due to a minor car accident. On initial examination, within 1 hour of the accident, moderate TBI is determined by EMT at the scene, on the basis disorientation and of the Glasgow Coma Scale (9-13). The patient is conscious, is hyperglycemic and able to orally ingest the ester. The patient is started on 0.5 g/kg/day glyceryl tris(3-hydroxybutyrate) orally in 3 divided doses (i.e., 10 g per serving 3 times a day). The patient is transported to a medical facility and allowed to ingest a standard diet lunch, having no glucogenic caloric restriction. […] The patient completes the regimen.
A 70 kg (boxer) presents with a sports injury concussion after having a history of 3 similar concussions over the past year. The past concussions are treated by standard medical practice without the use of ketogenic diet, starvation, or the esters of use in the present invention. The most recent concussive injury occurs 2 hours before the patient being brought into a hospital for treatment. The patient is immediately examined and determined to be hyperglycemic and to have a moderate concussive injury (on the basis of short term loss of consciousness, their lingering disorientation, and a Glasgow Coma Scale score of 9-13). The patient is started on 2.0 g/kg/day glyceryl tris(3-hydroxybutyrate) in three divided dose (i.e.. 46.7 g per serving 3 times a day) and permitted an ordinary standard oral diet not having glucogenic caloric restrictions for a 70 kg person. Treatment continues for 3 days.
The patient in Example 3, knowing that further concussive incidents are likely requests advice as to minimizing the effects of further concussive incidents. The patient is told to restart the glyceryl tris(3-hydroxybutyrate) regimen at least one meal period before partaking in the activity likely to result in a concussive injury. The patient has such serving at a 5 PM dinner and is in a match at 7 PM. The patient does in fact suffer a further TBI which once again is upon examination at the scene is determined to be a moderate TBI, however, the patient is euglycemic. On transport to a medical facility, the patient is re-examined and confirm that they have suffered another moderate TBI. The patient is started on 2.0 g/kg/day glyceryl tris(3-hydroxybutyrate) in three divided doses 46.7 g per serving 3 times a day) and permitted an ordinary standard oral diet not having glucogenic caloric restrictions for a 70 kg person. […] The patient is advised to continue with the glyceryl tris(3-hydroxybutyrate) regimen as in Example 3 for 6 days and return for re-evaluation. The patient maintains the regimen for 3 days instead of the recommended 6 and reports no adverse or lingering effects from the TBI.
The patients in Examples 2, 4, and 5 on re-evaluation are immediately started on the regimens referred to in Examples 1, 3, and 3 respectively for 7 days, and directed to return for re-evaluation on the 7th day of the newly started regimen. […] However, the improvement is not as complete as the patients in Examples 1 or 3.
A 30 kg child is brought to the emergency room with moderate to severe TBI (as per the Modified Glasgow Coma Scale) due to a playground fall, is hyperglycemic, is unconscious, is intubated, and begun on a regimen of 30 g twice daily of glyceryl tris(3-hydroxybutyrate) and further fed standard normal enteral diet. The regimen is continued for 7 days and re-evaluated at that time. […] The treatment is continued, with re-evaluation set for 7 days later.

[2] = tested on: traumatic brain injury (TBI) patients; test: Group comparisons of TBI patients / military personnel given glyceryl tris(3-hydroxybutyrate) versus matched patients; assay type: in vivo, human
Protocol: The patients are followed up approximately 6 months, after the TBI.
Military personnel having closed TBIs due to vehicular accidents or IEDs or other battlefield causes are evaluated for the severity of their TBIs and, where glyceryl tris(3-hydroxybutyrate) is available for administration, are started on a regimen of […] in 2 or 3 divided doses for 7 days (which regimen is generally started within 2 or 3 hours of injury) and then re-evaluated at day 7 to assess whether further treatment for the TBI is warranted. These are compared with comparably injured military personnel where access to the glyceryl tris(3-hydroxybutyrate) was not available for administration within the first week after injury.
In light of Example 10, combat troops and medics associated therewith are provided with glyceryl tris(3-hydroxybutyrate) to take into the field for use in triage in the case of mild-moderate closed TBI situations.
In light of Examples 10 and 11, combat troops are routinely given a morning dose of glyceryl tris(3-hydroxybutyrate) while in combat zones in case they suffer a mild to moderate non-penetrating closed TBI. For those troops that do suffer such TBIs within 12 hours of administration, their recovery, both acutely and longer term, is improved as compared to those only receiving the glyceryl tris(3-hydroxybutyrate) administration upon injury, after being matched for injury severity. Similar comparatives between those getting variously identical regimens of glyceryl tris(3-hydroxybutyrate) post-injury other than the single prophylactic dose prior to injury, with those receiving the preinjury dose faring better than those not receiving it, and further those whose injury is closer in time to the administration (1-2 hours post administration) faring better than those being injured further in time form the administration (10-12 hours post-administration).

Structure (SMILES): CC(O)CC(=O)OCC(COC(=O)CC(C)O)OC(=O)CC(C)O (stereo not drawn) [glyceryl tris(3-hydroxybutyrate)]
- Disorientation ([1]; Example 1: 60 kg female, moderate TBI (Glasgow Coma Scale 9-13), 0.5 g/kg/day orally in 3 divided doses, standard diet, after 2 days): recovered from their disorientation
- Clinical status at follow-up ([1]; Example 1: 60 kg female, moderate TBI, 0.5 g/kg/day orally in 3 divided doses, normal meals): fully recovered
- Glycemic status ([1]; Example 1: patient hyperglycemic at presentation, 0.5 g/kg/day, from shortly after ester administration through end of treatment and beyond): euglycemic
- Clinical status at follow-up ([1]; Example 3: 70 kg male boxer, 2.0 g/kg/day in three divided doses, standard oral diet): fully recovered
- Glycemic status ([1]; Example 3: patient hyperglycemic at presentation, 2.0 g/kg/day, from shortly after ester administration through end of treatment): euglycemic
- Adverse effects of the TBI the next day ([1]; Example 6: pre-injury serving, then 2.0 g/kg/day in three divided doses, the next day): no adverse effects
- Symptoms on reexamination ([1]; Example 6: regimen maintained for 3 days instead of the recommended 6): no symptoms are seen
- Glycemic status at examination after further TBI ([1]; Example 6: serving taken at 5 PM dinner before a 7 PM match (pre-injury dose), moderate TBI): euglycemic
- Clinical status at end of treatment ([1]; Example 8: 30 kg child, 30 g twice daily, after an additional 3 days of treatment): fully recovered
- Consciousness ([1]; Example 8: 30 kg child, 30 g twice daily, day 4 of continued treatment): regains consciousness
- Clinical symptoms ([1]; Example 8: 30 kg child, moderate to severe TBI, unconscious, intubated, 30 g twice daily, standard enteral diet, after 7 days): show improvement, but are not yet in normal ranges
- Long term effects of TBI ([2]; Example 9: moderate TBI, given with normal meals 2 or 3 times a day for one or two weeks, follow-up approximately 6 months after TBI, vs ketogenic diet or starvation): minimal, if not non-existent
- Recovery from acute symptoms and long-term post-concussive syndrome symptoms vs those not receiving it ([2]; Example 10: military personnel, closed TBI, 0.5 mg/kg/day to 2.0 mg/kg/day in 2 or 3 divided doses for 7 days, started within 2 or 3 hours of injury): fare much better
- Outcome vs treatment as in Example 10 ([2]; Example 11: mild-moderate closed TBI, given within minutes of suffering the TBI): fare even better
- Recovery, acutely and longer term, vs administration only upon injury ([2]; Example 12: combat troops, morning prophylactic dose, TBI within 12 hours of administration, matched for injury severity): improved
